Experimental data published in patent publication US20250296953A1, “3,4-THIAZOLO-STEROIDS AND METHODS OF MAKING AND USING THE SAME” (Arkansas State University - Jonesboro, priority 2018, published 2025).

Experiments:
SF-295 = test: NCI 60 one dose screen; type: cell-based, human; settings: one dose; CNS Cancer; SF-295
HCT-15 (Colon Cancer) = test: NCI 60 one dose screen; type: cell-based, human
SF-539 = test: NCI 60 one dose screen; type: cell-based, human; settings: one dose; CNS Cancer; SF-539
[1] = tested on: 60 different human tumor cell lines; test: NCI Development Therapeutics Program 60 cell line screen, one dose; type: cell-based
SK-MEL-25 = test: Melanoma cytotoxicity assay (resazurin); type: cell-based; settings: SK-MEL-25 melanoma cells, 24 hours with compound, resazurin; concentration not given
Outline: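 ~4000 cells/well, 24 h attach, 37° C/5% CO2; cpd triplicate, 24 h; resazurin 6 h; fluor 544/590 nm. % viability vs DMSO after media-blank subtraction; IC50 from dilution series, sigmoidal fit.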

[2] = Non-small Cell Lung Cancer, A549/ATCC
[3] = Non-small Cell Lung Cancer, EKVX
[4] = Non-small Cell Lung Cancer, HOP-62
[5] = Non-small Cell Lung Cancer, HOP-92
[6] = Non-small Cell Lung Cancer, NCI-H23
[7] = Non-small Cell Lung Cancer, NCI-H226
[8] = Non-small Cell Lung Cancer, NCI-H322M
[9] = Non-small Cell Lung Cancer, NCI-H460

C[C@]12CCc3nc(Nc4ccc(O)cc4)sc3C1=CC[C@@H]1[C@@H]2CC[C@]2(C)C(=O)CC[C@@H]12 [IIa.35]
Growth Percent (SF-295): 52.47% | Growth Percent (HCT-15 (Colon Cancer)): −67.96% | Growth Percent (SF-539): −3.84% | Growth Percent ([1]; Breast Cancer, BT-549): 45.59% | Growth Percent ([1]; Breast Cancer, HS 578T): 53.60% | Growth Percent ([1]; Breast Cancer, MCF7): 3.11% | Growth Percent ([1]; Breast Cancer, MDA-MB-231/ATCC): 35.27% | Growth Percent ([1]; Breast Cancer, MDA-MB-468): −36.91% | Growth Percent ([1]; Breast Cancer, T-47D): 10.57% | Growth Percent ([1]; CNS Cancer, SF-268): 58.35% | Growth Percent ([1]; CNS Cancer, SNB-19): 64.60% | Growth Percent ([1]; CNS Cancer, SNB-75): 41.74% | Growth Percent ([1]; CNS Cancer, U251): 19.48% | Growth Percent ([1]; Colon Cancer, COLO 205): 38.45% | Growth Percent ([1]; Colon Cancer, HCC-2998): 97.70% | Growth Percent ([1]; Colon Cancer, HCT-116): −72.37% | Growth Percent ([1]; Colon Cancer, HT29): 10.26% | Growth Percent ([1]; Colon Cancer, KM12): 46.68% | Growth Percent ([1]; Colon Cancer, SW-620): −32.15% | Growth Percent ([1]; Leukemia, CCRF-CEM): 8.33% | Growth Percent ([1]; Leukemia, HL-60(TB)): 8.98% | Growth Percent ([1]; Leukemia, K-562): 10.77% | Growth Percent ([1]; Leukemia, MOLT-4): 10.99% | Growth Percent ([1]; Leukemia, RPMI-8226): −24.54% | Growth Percent ([1]; Leukemia, SR): 9.60% | Growth Percent ([1]; Melanoma, LOX IMVI): −8.01% | Growth Percent ([1]; Melanoma, M14): 58.13% | Growth Percent ([1]; Melanoma, MALME-3M): 29.71% | Growth Percent ([1]; Melanoma, MDA-MB-435): 35.34% | Growth Percent ([1]; Melanoma, SK-MEL-2): 72.46% | Growth Percent ([1]; Melanoma, SK-MEL-5): 62.03% | Growth Percent ([1]; Melanoma, SK-MEL-28): 77.86% | Growth Percent ([1]; Melanoma, UACC-62): 55.82% | Growth Percent ([1]; Melanoma, UACC-257): 73.38% | Growth Percent [1, 2]: 79.28% | Growth Percent [1, 3]: 98.04% | Growth Percent [1, 4]: 92.69% | Growth Percent [1, 5]: 125.71% | Growth Percent [1, 6]: 70.16% | Growth Percent [1, 7]: 102.70% | Growth Percent [1, 8]: 93.36% | Growth Percent [1, 9]: 65.57% | Growth Percent ([1]; Ovarian Cancer, IGROV1): 13.07% | Growth Percent ([1]; Ovarian Cancer, NCI/ADR-RES): 68.59% | Growth Percent ([1]; Ovarian Cancer, OVCAR-3): −31.67% | Growth Percent ([1]; Ovarian Cancer, OVCAR-4): 57.12% | Growth Percent ([1]; Ovarian Cancer, OVCAR-5): 116.69% | Growth Percent ([1]; Ovarian Cancer, OVCAR-8): 35.92% | Growth Percent ([1]; Ovarian Cancer, SK-OV-3): 107.77% | Growth Percent ([1]; Prostate Cancer, DU-145): 10.45% | Growth Percent ([1]; Prostate Cancer, PC-3): 39.10% | Growth Percent ([1]; Renal Cancer, 786-0): −3.03% | Growth Percent ([1]; Renal Cancer, A498): 100.87% | Growth Percent ([1]; Renal Cancer, ACHN): −17.29% | Growth Percent ([1]; Renal Cancer, CAKI-1): 47.13% | Growth Percent ([1]; Renal Cancer, RXF 393): −16.18% | Growth Percent ([1]; Renal Cancer, SN12C): 30.38% | Growth Percent ([1]; Renal Cancer, TK-10): 22.82% | Growth Percent ([1]; Renal Cancer, UO-31): −48.83%

C[C@]12CCc3nc(N)sc3C1=CC[C@@H]1[C@@H]2CC[C@]2(C)C(=NNC(N)=O)CC[C@@H]12 [IVb.1]
Growth Percent (SF-295): 45.72% | Growth Percent (HCT-15 (Colon Cancer)): −47.82% | Growth Percent (SF-539): 87.19% | Growth Percent ([1]; Breast Cancer, BT-549): 107.48% | Growth Percent ([1]; Breast Cancer, HS 578T): 36.38% | Growth Percent ([1]; Breast Cancer, MCF7): −55.62% | Growth Percent ([1]; Breast Cancer, MDA-MB-231/ATCC): 35.18% | Growth Percent ([1]; Breast Cancer, MDA-MB-468): −46.23% | Growth Percent ([1]; Breast Cancer, T-47D): −21.02% | Growth Percent ([1]; CNS Cancer, SF-268): −6.41% | Growth Percent ([1]; CNS Cancer, SNB-19): −9.98% | Growth Percent ([1]; CNS Cancer, SNB-75): 99.02% | Growth Percent ([1]; CNS Cancer, U251): −69.94% | Growth Percent ([1]; Colon Cancer, COLO 205): 34.98% | Growth Percent ([1]; Colon Cancer, HCC-2998): 63.85% | Growth Percent ([1]; Colon Cancer, HCT-116): 6.35% | Growth Percent ([1]; Colon Cancer, HT29): 13.20% | Growth Percent ([1]; Colon Cancer, KM12): 20.47% | Growth Percent ([1]; Colon Cancer, SW-620): −59.20% | Growth Percent ([1]; Leukemia, CCRF-CEM): −5.86% | Growth Percent ([1]; Leukemia, HL-60(TB)): 42.82% | Growth Percent ([1]; Leukemia, K-562): −38.55% | Growth Percent ([1]; Leukemia, MOLT-4): 13.35% | Growth Percent ([1]; Leukemia, RPMI-8226): −6.28% | Growth Percent ([1]; Leukemia, SR): −21.79% | Growth Percent ([1]; Melanoma, LOX IMVI): −67.61% | Growth Percent ([1]; Melanoma, M14): −51.14% | Growth Percent ([1]; Melanoma, MALME-3M): 3.07% | Growth Percent ([1]; Melanoma, MDA-MB-435): −58.82% | Growth Percent ([1]; Melanoma, SK-MEL-5): 20.55% | Growth Percent ([1]; Melanoma, SK-MEL-28): 13.00% | Growth Percent ([1]; Melanoma, UACC-62): 38.92% | Growth Percent ([1]; Melanoma, UACC-257): 105.26% | Growth Percent [1, 2]: 0.92% | Growth Percent [1, 3]: −4.54% | Growth Percent [1, 4]: 75.49% | Growth Percent [1, 5]: 46.57% | Growth Percent [1, 6]: −44.30% | Growth Percent [1, 7]: 107.87% | Growth Percent [1, 8]: 52.42% | Growth Percent [1, 9]: −38.65% | Growth Percent ([1]; Ovarian Cancer, IGROV1): 2.90% | Growth Percent ([1]; Ovarian Cancer, NCI/ADR-RES): −5.32% | Growth Percent ([1]; Ovarian Cancer, OVCAR-3): −32.35% | Growth Percent ([1]; Ovarian Cancer, OVCAR-4): −19.07% | Growth Percent ([1]; Ovarian Cancer, OVCAR-5): 72.93% | Growth Percent ([1]; Ovarian Cancer, OVCAR-8): −2.26% | Growth Percent ([1]; Ovarian Cancer, SK-OV-3): 100.67% | Growth Percent ([1]; Prostate Cancer, PC-3): 57.29% | Growth Percent ([1]; Renal Cancer, 786-0): −9.65% | Growth Percent ([1]; Renal Cancer, A498): 91.62% | Growth Percent ([1]; Renal Cancer, ACHN): 32.38% | Growth Percent ([1]; Renal Cancer, CAKI-1): 62.97% | Growth Percent ([1]; Renal Cancer, RXF 393): 7.08% | Growth Percent ([1]; Renal Cancer, SN12C): 18.09% | Growth Percent ([1]; Renal Cancer, TK-10): 49.21% | Growth Percent ([1]; Renal Cancer, UO-31): 85.84%

(1S,2R,13R,14S,18S)-7-(2,4-dimethylanilino)-2,18-dimethyl-6-thia-8-azapentacyclo[11.7.0.02,10.05,9.014,18]icosa-5(9),7,10-trien-17-one [IIa.14]
Growth Percent (SF-295): 63.77% | Growth Percent (HCT-15 (Colon Cancer)): 0.81% | Growth Percent (SF-539): 8.46% | Growth Percent ([1]; Breast Cancer, BT-549): 2.85% | Growth Percent ([1]; Breast Cancer, HS 578T): 45.27% | Growth Percent ([1]; Breast Cancer, MCF7): 18.18% | Growth Percent ([1]; Breast Cancer, MDA-MB-231/ATCC): 26.55% | Growth Percent ([1]; Breast Cancer, MDA-MB-468): 16.97% | Growth Percent ([1]; Breast Cancer, T-47D): 41.81% | Growth Percent ([1]; CNS Cancer, SF-268): 46.93% | Growth Percent ([1]; CNS Cancer, SNB-19): 44.03% | Growth Percent ([1]; CNS Cancer, SNB-75): 35.14% | Growth Percent ([1]; CNS Cancer, U251): 18.36% | Growth Percent ([1]; Colon Cancer, COLO 205): 62.35% | Growth Percent ([1]; Colon Cancer, HCC-2998): 84.48% | Growth Percent ([1]; Colon Cancer, HCT-116): −27.32% | Growth Percent ([1]; Colon Cancer, HT29): 3.81% | Growth Percent ([1]; Colon Cancer, KM12): 44.55% | Growth Percent ([1]; Colon Cancer, SW-620): 4.35% | Growth Percent ([1]; Leukemia, CCRF-CEM): 7.99% | Growth Percent ([1]; Leukemia, HL-60(TB)): 9.29% | Growth Percent ([1]; Leukemia, K-562): 5.33% | Growth Percent ([1]; Leukemia, MOLT-4): −0.31% | Growth Percent ([1]; Leukemia, RPMI-8226): −3.52% | Growth Percent ([1]; Leukemia, SR): −0.63% | Growth Percent ([1]; Melanoma, LOX IMVI): −16.56% | Growth Percent ([1]; Melanoma, M14): 37.85% | Growth Percent ([1]; Melanoma, MALME-3M): 27.34% | Growth Percent ([1]; Melanoma, MDA-MB-435): 16.89% | Growth Percent ([1]; Melanoma, SK-MEL-2): 72.63% | Growth Percent ([1]; Melanoma, SK-MEL-5): 51.38% | Growth Percent ([1]; Melanoma, SK-MEL-28): 50.77% | Growth Percent ([1]; Melanoma, UACC-62): 39.03% | Growth Percent ([1]; Melanoma, UACC-257): 65.55% | Growth Percent [1, 2]: 61.13% | Growth Percent [1, 3]: 51.95% | Growth Percent [1, 4]: 45.74% | Growth Percent [1, 5]: 65.93% | Growth Percent [1, 6]: 54.16% | Growth Percent [1, 7]: 72.85% | Growth Percent [1, 8]: 79.50% | Growth Percent [1, 9]: 45.78% | Growth Percent ([1]; Ovarian Cancer, IGROV1): 17.68% | Growth Percent ([1]; Ovarian Cancer, NCI/ADR-RES): 53.35% | Growth Percent ([1]; Ovarian Cancer, OVCAR-3): −6.33% | Growth Percent ([1]; Ovarian Cancer, OVCAR-4): 59.62% | Growth Percent ([1]; Ovarian Cancer, OVCAR-5): 59.08% | Growth Percent ([1]; Ovarian Cancer, OVCAR-8): 31.69% | Growth Percent ([1]; Ovarian Cancer, SK-OV-3): 78.49% | Growth Percent ([1]; Prostate Cancer, DU-145): 25.93% | Growth Percent ([1]; Prostate Cancer, PC-3): 15.83% | Growth Percent ([1]; Renal Cancer, 786-0): 5.54% | Growth Percent ([1]; Renal Cancer, A498): 66.68% | Growth Percent ([1]; Renal Cancer, ACHN): 32.28% | Growth Percent ([1]; Renal Cancer, CAKI-1): 49.83% | Growth Percent ([1]; Renal Cancer, RXF 393): 28.78% | Growth Percent ([1]; Renal Cancer, SN12C): 26.21% | Growth Percent ([1]; Renal Cancer, TK-10): 63.32% | Growth Percent ([1]; Renal Cancer, UO-31): 34.25% | SK-MEL-25 (% inhibition) (SK-MEL-25): 15%
